Reference: paper PMC12830989, “Subcellular glycan-mannose receptor binding kinetics correlate with myeloid cell function” (Nature Communications, 2025)
Values joined by “and” are separate entries in the source; they are usually repeats but may differ in a detail not shown here. Identical values can stand only once. sCy5 = sulfo-Cy5

Tests used:
[1] = test system: bone-marrow derived mouse dendritic cells (BMDCs); assay: Glyco-PAINT-APP single-molecule glycan binding on live WT BMDC; conditions: for koff−1 / kon: Suppl. Fig 9, glycan SLP, median; for population of squares with binding events of high mobility (high diffusion coefficient) and low event density (kon), uniquely present for WT cells: WT BMDC versus MR-/- BMDC, Fig 4a, b; for event density, dwell time and diffusion coefficient after CytD treatment: Cytochalasin D treated versus untreated
Procedure: Single molecule imaging was performed on a Nikon Ti2 N-STORM system equipped with TIRF module, Z piezo element, perfect focus system for axial drift correction and an OkoLab incubator with temperature and CO2 controller (37 °C and 5% CO2) for live-cell imaging. Recordings were acquired using the 647 nm excitation laser (160 mW, 1.9 kW/cm^2). Upon laser excitation, fluorescence was collected by a 100x 1.49 NA oil-immersion objective, passed through a quad-band dichroic mirror (97335 Nikon), and detected by a Hamamatsu ORCA Flash 4.0 CMOS camera with 160 nm pixel size. The signal was collected using the following settings: 512 × 512 pixel region, no binning, pixel depth 16-bit, exposure time 50 ms, live-cell observation and 2D-STORM (lens out), zoom 1x, lens x0.4, and for live-cell observation at 37 °C, the correction collar was set to position 8160.
5 x 10^4 CHO-MR or 1 x 10^5 WT, MR^−/− BMDC or BMDM were seeded in 8-well glass-bottomed microscopy slides (Ibidi, 80827) in complete medium. After equilibration in the microscope incubator, fluorescent glycan was added at 5 nM for CHO-MR and 10 nM for BMDC or BMDM experiments. Then, cells were brought into focus using brightfield illumination and 2000 frames (at 50 ms intervals) were recorded within a single field-of-view at 40–60% of maximum 647 nm laser power using TIRF illumination. For indicated experiments, Cytochalasin D (Focus Biomolecules) was added to a final concentration of 10 µM for 30 min prior to acquisition.
Processing of recordings using Glyco-PAINT-APP was performed as described in a step-by-step procedure in the Supplementary Software Manual in the Supplementary Information and accompanying Supplementary Videos 1 and 2. For the TrackMate processing, a batch file (Experiment Info.csv) containing the experiment metadata and tracking parameters was created. Threshold values were set to 5, 10 or 15 such that no more than 1.500.000 spots were detected. Recordings were then processed in TrackMate using the ‘Run TrackMate Batch’ plugin provided by the Glyco-PAINT-APP. Through this plugin, spot detection and tracking by TrackMate[70] was performed as indicated in the batch file using the Simple LAP tracker algorithm with a maximum frame gap of 3, a max linking distance of 0.6 μm and a gap closing max distance of 1.2 μm. Tracks with only two spots were discarded. For the parameter sensitivity analysis, each tracking or spot detection was varied as indicated, whilst the others were kept at aforementioned values (Basis scenario).
With the Glyco-PAINT-APP utility ‘Generate Squares’, a grid of squares was overlaid, and kinetic properties for each square were calculated. Default parameters for grid processing are (deviations are mentioned in figure captions): Nr of Squares in row 20, Minimum Tracks to Calculate Tau 20, Min allowable R Squared 0.1, Min Required Density Ratio 2, Maximum Allowable Variability 10 and Neighbour Mode Free.
For every recording, a background track count was calculated by averaging the track count of the 40 (10% of the total number of squares) least dense squares. Only squares for which the track count exceeded the Min Required Density Ratio of 2 were considered (and the remaining ignored as background). For each square, the variability was calculated and only squares for which the variability was less than the Maximum Allowable Variability of 10 were considered. For squares meeting both the Minimum Required Density Ratio and Maximum Allowable Variability criteria, and containing at least the Minimum Tracks to Calculate Tau kinetic parameters, including kon, koff and MSD were calculated as in Riera et al.[10], or copied from the TrackMate Tracks table output (for velocity, displacement, and track duration).

[2] = test system: WT BMDC with OT-I T cells; assay: T cell proliferation assay (cross-presentation to OT-I T cells), WT BMDC; type: cell-based, mouse; conditions: Fig 4f source data; 40 nM SLP pulse 2 h, MPLA-matured BMDC, 3 d coculture with OT-I; per experiment, two technical replicates
Procedure: A 70 µm filter was placed on a 50 mL tube and pre-wetted with PBS supplemented with 2 mM EDTA and 2% FCS (single-cell suspension buffer, SCSB). Freshly harvested spleens from OT-I transgenic mice were placed on the filter and disrupted with the back end of a syringe. After thorough washing, the suspension was centrifuged (10 min., 300 rcf, rt). Next, the pellet was gently resuspended in 2 mL of ACK lysing buffer (Gibco, A1049201). After 3 min incubation, the suspension was diluted with 10 mL PBS, filtered once more, and centrifuged again (300 rcf, 10 min, rt). The pellet was resuspended and subjected to magnetically-activated depletion of non-target cells using the “Naïve CD8a+ T cell isolation Kit” (Miltenyi, 130-096-543) according to manufacturer’s protocol. The obtained T cells were counted and resuspended at a density of 5-15 x 10^6/mL in 1 mL PBS with 5 µM CFSE (Biolegend) and incubated for 15 min. at 37 °C. After incubation, cells were spun down (10 min, 300 rcf, rt), washed once more with complete RPMI-1640 and were ready for downstream use.
5 x 10^4 WT, MR^−/− BMDC or 1 x 10^5 splenic DC were seeded in 96-well Nunc U-bottom plates (Thermo Scientific, 168136) and pulsed with Glycan SLP at 40 nM for indicated time. In indicated experiments, DC were pretreated with 1 µg/mL MPLA (Avanti, 699800 P) for 2 h before antigen pulse. After antigen pulse was finished, the plate was spun down for 3 min at 600 rcf, washed once with complete RPMI-1640 and 1-1.5E5 freshly isolated, CFSE-stained OT-I T cells were added to the pulsed DCs in 200 µL complete RPMI-1640 and incubated at 37 °C. After 3 d of coculture, the plate was spun down (3 min, 600 rcf, 4 °C) and supernatant was removed and stored at −80 °C. Cells were washed with FACS buffer (PBS with 2 mM EDTA, 2% FCS and 7.4 mM NaN3) and stained with Aqua Live/DEAD (Invitrogen, L34957, 1:500), TruStain FcX (Biolegend, 101319, 1:100), CD8a—APC (clone: 53-7.6, Biolegend, 100711, 1:200), and TCR V beta 5.1/5.2—eFluor450 (clone: MR9-4, eBioscience, 48-5796-82) for 30 min on ice, washed two times and acquired on a BD Fortessa I flow cytometer and analyzed using FlowJo v8. To calculate mean cycle, the CFSE dilution factor was obtained by dividing the MFI of the antigen pulsed condition by the DMSO pulsed condition expressed as Log2[69]. Statistical analysis and plotting were performed using GraphPad Prism V10.

## Ac-Lys(Man)-Lys(Man)-Lys(Man)-Lys(Man)-Lys(Man)-Lys(Man)-TEG-Asp-Glu-Val-Ser-Gly-Leu-Glu-Gln-Leu-Glu-Ser-Ile-Ile-Asn-Phe-Glu-Lys-Leu-Ala-Ala-Ala-Ala-Ala-Lys(sCy5)-NH2 ({Ac-K(Man)-K(Man)-K(Man)-K(Man)-K(Man)-K(Man)-TEG}-DEVSGLEQLESIINFEKLAAAAAK(sCy5)-NH2) [6 Mono(3), hexavalent monomannosylated OVA SLP with sulfo-Cy5]
[1]; BMDC + CytD
  koff−1: 116 ms
  kon: 2 evts μm−2 sec−1
[1]; BMDC
  koff−1: 76 ms
  kon: 2.1 evts μm−2 sec−1
[1]
  population of squares with binding events of high mobility (high diffusion coefficient) and low event density (kon), uniquely present for WT cells: most prominent
[2]
  average number of cell divisions per T cell (mean cycles): 1.958 and 1.615 and 1.514 and 1.427 and 1.57 and 1.31

## Ac-Lys(triMan)-TEG-Asp-Glu-Val-Ser-Gly-Leu-Glu-Gln-Leu-Glu-Ser-Ile-Ile-Asn-Phe-Glu-Lys-Leu-Ala-Ala-Ala-Ala-Ala-Lys(sCy5)-NH2 (DEVSGLEQLESIINFEKLAAAAAK; Ac-Lys(triMan)-TEG, sulfo-Cy5, C-amide; printed: Asp-Glu-Val-Ser-Gly-Leu-Glu-Gln-Leu-Glu-Ser-Ile-Ile-Asn-Phe-Glu-Lys-Leu-Ala-Ala-Ala-Ala-Ala-Lys) [1 Tri(4), monovalent trimannosylated OVA SLP with sulfo-Cy5]
[1]; BMDC
  event density, dwell time and diffusion coefficient after CytD treatment: increased significantly
  koff−1: 88 ms
  kon: 1 evts μm−2 sec−1
[1]; BMDC + CytD
  koff−1: 124 ms
  kon: 1.5 evts μm−2 sec−1
[2]
  average number of cell divisions per T cell (mean cycles): 1.87 and 1.461 and 1.875 and 1.671 and 1.661 and 1.884

## Ac-Lys(Man)-Gly-Lys(Man)-TEG-Asp-Glu-Val-Ser-Gly-Leu-Glu-Gln-Leu-Glu-Ser-Ile-Ile-Asn-Phe-Glu-Lys-Leu-Ala-Ala-Ala-Ala-Ala-Lys(sCy5)-NH2 ({Ac-K(Man)-Gly-K(Man)-TEG}-DEVSGLEQLESIINFEKLAAAAAK(sCy5)-NH2) [2 Mono(2), bivalent monomannosylated OVA SLP with sulfo-Cy5]
[1]; BMDC + CytD
  koff−1: 81 ms
  kon: 3 evts μm−2 sec−1
[1]; BMDC
  koff−1: 96 ms
  kon: 2.4 evts μm−2 sec−1
[1]
  population of squares with binding events of high mobility (high diffusion coefficient) and low event density (kon), uniquely present for WT cells: most prominent
[2]
  average number of cell divisions per T cell (mean cycles): 1.851 and 1.961 and 2.178 and 1.94 and 2.008 and 2.005

## Ac-Lys(triMan)-Gly-Lys(triMan)-TEG-Asp-Glu-Val-Ser-Gly-Leu-Glu-Gln-Leu-Glu-Ser-Ile-Ile-Asn-Phe-Glu-Lys-Leu-Ala-Ala-Ala-Ala-Ala-Lys(sCy5)-NH2 (DEVSGLEQLESIINFEKLAAAAAK; two Lys(triMan), TEG, sulfo-Cy5, C-amide; printed: Asp-Glu-Val-Ser-Gly-Leu-Glu-Gln-Leu-Glu-Ser-Ile-Ile-Asn-Phe-Glu-Lys-Leu-Ala-Ala-Ala-Ala-Ala-Lys) [2 Tri(5), bivalent trimannosylated OVA SLP with sulfo-Cy5]
[1]; BMDC
  event density, dwell time and diffusion coefficient after CytD treatment: increased significantly
  koff−1: 69 ms
  kon: 1.1 evts μm−2 sec−1
[1]; BMDC + CytD
  koff−1: 112 ms
  kon: 7 evts μm−2 sec−1
[1]
  population of squares with binding events of high mobility (high diffusion coefficient) and low event density (kon), uniquely present for WT cells: not
[2]
  average number of cell divisions per T cell (mean cycles): 0.8018 and 0.6166 and 1.144 and 1.271 and 1.393 and 1.229

## Ac-Lys(triMan)-Lys(triMan)-Lys(triMan)-Lys(triMan)-Lys(triMan)-Lys(triMan)-TEG-Asp-Glu-Val-Ser-Gly-Leu-Glu-Gln-Leu-Glu-Ser-Ile-Ile-Asn-Phe-Glu-Lys-Leu-Ala-Ala-Ala-Ala-Ala-Lys(sCy5)-NH2 (DEVSGLEQLESIINFEKLAAAAAK; six Lys(triMan), TEG, sulfo-Cy5, C-amide; printed: Asp-Glu-Val-Ser-Gly-Leu-Glu-Gln-Leu-Glu-Ser-Ile-Ile-Asn-Phe-Glu-Lys-Leu-Ala-Ala-Ala-Ala-Ala-Lys) [6 Tri(6), hexavalent trimannosylated OVA SLP with sulfo-Cy5]
[1]; BMDC + CytD
  koff−1: 74 ms
  kon: 1.6 evts μm−2 sec−1
[1]; BMDC
  koff−1: 68 ms
  kon: 2.3 evts μm−2 sec−1
[1]
  population of squares with binding events of high mobility (high diffusion coefficient) and low event density (kon), uniquely present for WT cells: most prominent
[2]
  average number of cell divisions per T cell (mean cycles): 0.3003 and 0.3873 and 0.4343 and 0.4095 and 0.438

## Ac-Lys(Man)-TEG-Asp-Glu-Val-Ser-Gly-Leu-Glu-Gln-Leu-Glu-Ser-Ile-Ile-Asn-Phe-Glu-Lys-Leu-Ala-Ala-Ala-Ala-Ala-Lys(sCy5)-NH2 ({Ac-K(Man)-TEG}-DEVSGLEQLESIINFEKLAAAAAK(sCy5)-NH2) [1 Mono(1), monovalent monomannosylated OVA SLP with sulfo-Cy5]
[1]; BMDC + CytD
  koff−1: 98 ms
  kon: 4.3 evts μm−2 sec−1
[1]; BMDC
  koff−1: 87 ms
  kon: 0.9 evts μm−2 sec−1
[1]
  population of squares with binding events of high mobility (high diffusion coefficient) and low event density (kon), uniquely present for WT cells: not
[2]
  average number of cell divisions per T cell (mean cycles): 2.424 and 2.329 and 2.498 and 2.6657 and 2.752 and 2.248
